# Laboratory results: patent publication US8716293B2, “Macrocyclic integrase inhibitors” (Janssen R&D Ireland, priority 2010, dated 2014)
# pEC50: −log10 of the molar value.
# Columns and labels:
# [1] = system: cryopreserved hepatocytes of human subjects; assay: metabolic stability in human hepatocytes; format: in vitro ADME; details: 1 μM, percentage turnover; for Human (% TO) 15 min: 15 min incubation; for Human (% TO) 60 min: 60 min incubation
# Method: (§1) For determining in vitro metabolic stability, cryopreserved hepatocytes from Sprague Dawley rats and of human subjects (pool of male and female) were obtained from an external supplier (Cellz Direct Inc., Paisly, UK). Tested compounds were dissolved in DMSO and this stock solution was used to spike rat and human hepatocyte cell cultures (10^6 cells/ml) at a final concentration of 1 μM (final percentage of DMSO was 0.02% (v/v)). Incubations were performed for up to 60 min at approximately 37° C. and terminated by the addition of two volumes of DMSO. Samples were then centrifuged and aliquots of the supernatant analyzed using liquid chromatography (LC) with electrospray mass spectrometric detection (MS/MS) to monitor the disappearance of parent compound by single reaction monitoring (SRM) and reverse-phase chromotatography with a gradient of acetonitrile and water containing 0.1% (v/v) formic acid. Based on peak area, the percentage of parent compound remaining after 15 and 60 min incubation was calculated and the results, expressed as percentage turnover (TO) relative to time zero controls.
# [2] = system: cryopreserved hepatocytes from Sprague Dawley rats; assay: metabolic stability in rat hepatocytes; format: in vitro ADME; details: 1 μM, percentage turnover; for Rat (% TO) 15 min: 15 min incubation; for Rat (% TO) 60 min: 60 min incubation
# Method: as §1
# HIV-1 SDM strain N155H = assay: cell-based HIV-1 replication assay in MT4-LTR-EGFP cells, N155H mutant; details: fold change in activity against N155H mutant compared to wild type HIV
# Excerpt: (§2) MT4-LTR-enhanced green fluorescent protein (EGFP) cells were obtained by transfecting MT4 cells with a selectable construct encompassing the coding sequences for the HIV LTR as a promoter for the expression of EGFP and subsequent selection of permanently transfected cells. MT4-cytomegalovirus (CMV)-EGFP cells were obtained by selection for permanently transformed MT4 cells with a CMV-EGFP reporter gene. Cell lines were maintained in RPMI 1640 medium supplemented with 10% heat-inactivated fetal calf serum, 2 mM L-glutamine, 0.1% NaHCO3, and antibiotics (0.02% gentamicin and 0.8% G418) and incubated in a humidified incubator with a 5% CO2 atmosphere at 37° C.
# (§3) N155H and Q148R mutant Integrase coding sequences were constructed in the pUC19-5′HXB2D vector (XbaI-SalI fragment of pHXB2D), containing the HIV-1 clone HXB2D IN coding sequence, by using a QuikChange site-directed mutagenesis kit (Stratagene, La Jolla, Calif.) and HPLC-purified primers (Genset Oligos, La Jolla, Calif.). Altered plasmid sequences were confirmed by dideoxyribose sequencing. For generation of site-directed mutant (SDM) virus stocks, MT4 cells were subcultured at a density of 250,000 cells/ml on the day before transfection. Cells were pelleted and resuspended in phosphate-buffered saline at a concentration of 3.1×10^6 cells/ml. A 0.8-ml portion ([…]) was used for each transfection. Transfections were performed with a Bio-Rad Gene Pulser (Bio-Rad, Hercules, Calif.) with 0.4-cm electrode cuvettes (Bio-Rad). Cells were electroporated with 10 μg of SalI-linearized pUC19-3′HXB2D (SalI-XbaI fragment of pHXB2D) and 5 μg of SalI-digested SDM at 250 μF and 300 V, followed by a 30-min incubation at room temperature. Ten ml of fresh culture medium was then added to the suspension of transfected cells, and incubation was performed at 37° C. in a humidified atmosphere with 5% CO2. Cell cultures were monitored for the appearance of cytopathic effect (CPE).
# (§4) The inhibitory antiviral activity of different compounds was determined in a cell-based HIV-1 replication assay. MT4-LTR-EGFP cells (150,000 cells/ml) were infected with HIV-1 (IIIB or SDM strains Q148R, N155H, or G140S-Q148H; multiplicity of infection [MOI] of 0.0025) in the presence or absence of inhibitor. After 3 days of incubation, the inhibition of HIV replication was quantified by measuring EGFP fluorescence, and expressed as the compound concentration required for 50% inhibition of HIV-1 replication in cell culture (EC50).
# [3] = system: HIV-1 SDM strain G140S-Q148H; assay: cell-based HIV-1 replication assay in MT4-LTR-EGFP cells, G140S-Q148H mutant; details: fold change in activity against G140S-Q148H mutant compared to wild type HIV
# Excerpt: as §2, §3, §4
# [4] = pharmacokinetic evaluation in the rat; format: in vivo, male Sprague-Dawley rats; details: intravenous bolus 2 mg/kg; for CLp: plasma clearance; for t1/2: terminal phase elimination half-life; for Vss: volume of distribution at steady-state
# Method: For determining the pharmacokinetic properties in rat, each HIV integrase inhibitor was dissolved in PEG400/normal saline (70:30 (v/v)) at a nominal concentration of 1 mg/ml and administered (2 ml/kg) to male Sprague-Dawley rats (n=3 per test compound) as an intravenous bolus via a saphenous vein at a dose level of 2 mg/kg. […] Plasma was obtained by centrifugation and stored at −20° C. prior to analysis. Analysis was performed using liquid chromatography (LC) with tandem mass spectrometric detection (MS/MS) in positive ion mode. Each HIV integrase inhibitor was eluted from a reversed-phase column with a gradient of acetonitrile and water containing 0.1% (v/v) formic acid. At the time of analysis plasma samples (50 p. 1) were thawed and […] with 200 μl of acetonitrile containing 0.1% (v/v) formic acid and centrifuged. Aliquots of the supernatant (100 μl) were diluted with 200 μl of water containing 25% (v/v) methanol and 0.1% (v/v) formic acid and injected via an electrospray interface directly into the Mass Spectrometer. Calibration standards and quality controls were prepared in rat plasma at the same time as the samples and analyzed before and after the samples containing HIV integrase inhibitor. Non-compartmental pharmacokinetic analysis of the plasma concentration-time curves was performed using WinNonLin software to provide estimates of the plasma clearance (CLp), volume of distribution at steady-state (Vss) and terminal phase elimination half-life (t1/2).
# HIV-1 LAI (IIIB) = assay: antiviral assay in the presence of 50% human serum; format: cell-based; details: MT-4-LTR-EGFP cells, 4 days, resazurin cell viability
# Method: For the antiviral assay in the presence of 50% human serum, MT-4-LTR-EGFP cells were infected with HIV-1 LAI (IIIB) at a MOI of 0.001 to 0.01 CCID50/cell in RPMI1640 medium. Following 1 h of incubation, cells were washed and plated into a 96-well plate containing serial dilutions of test compound in the presence of 10% fetal calf serum or 50% human serum. After 4 days of incubation, the EC50 in the presence of 50% human serum (EC50/HS) was determined by a cell viability assay using resazurin (as described by Fields, R. D., and M. V. Lancaster (1993) Am. Biotechnol. Lab. 11:48-50).
# HIV-1 SDM strain Q148R = assay: cell-based HIV-1 replication assay in MT4-LTR-EGFP cells, Q148R mutant; details: fold change in activity against Q148R mutant compared to wild type HIV
# Excerpt: as §2, §3, §4
Compound,Human (% TO) 15 min [1],Human (% TO) 60 min [1],Rat (% TO) 15 min [2],Rat (% TO) 60 min [2],FC-N155H (HIV-1 SDM strain N155H),FC-G140S-Q148H [3],CLp [4],t1/2 [4],Vss [4],pEC50 (HIV-1 LAI (IIIB)),FC-Q148R (HIV-1 SDM strain Q148R)
CCN1C[C@H](C)n2c(c(O)c3c(=O)n4nc(c32)N(C)S(=O)(=O)CCCCCOc2cc(F)ccc2C4)C1=O [Compound 5],12 % TO,38 % TO,15 % TO,20 % TO,2.4,1.2,8 mL/min/kg,4.9 h,1.5 L/kg,7.80,0.5
CC(C)N1C[C@H](C)n2c(c(O)c3c(=O)n4nc(c32)N(C)S(=O)(=O)CCCCOc2cc(F)ccc2C4)C1=O [Compound 6],23 % TO,36 % TO,20 % TO,33 % TO,3.2,1.7,5 mL/min/kg,5.5 h,0.7 L/kg,8.30,0.7
CC(C)N1C[C@H](C)n2c(c(O)c3c(=O)n4nc(c32)N(C)S(=O)(=O)CCCCCOc2cc(F)ccc2C4)C1=O [Compound 7],2 % TO,12 % TO,21 % TO,31 % TO,2.2,1.0,7 mL/min/kg,4.8 h,0.9 L/kg,7.92,0.4
CCN1C[C@H](C)n2c(c(O)c3c(=O)n4nc(c32)N(C)S(=O)(=O)CCCCNC(=O)c2cc(F)ccc2C4)C1=O [Compound 22],–,–,–,–,6.0,1.7,12 mL/min/kg,–,0.6 L/kg,7.85,0.5
CCN1C[C@H](C)n2c(c(O)c3c(=O)n4nc(c32)C(=O)N(C)CCCCCOc2cc(F)ccc2C4)C1=O [Compound 31],–,–,–,–,4.6,7.0,13 mL/min/kg,8.1 h,6 L/kg,7.68,0.6
CCN1CCCCCOc2cc(F)c(Cl)cc2Cn2nc(c3c(c(O)c4n3[C@@H](C)CN(CC)C4=O)c2=O)C1=O [Compound 33],–,–,–,–,5.1,2.5,11 mL/min/kg,4.2 h,1.3 L/kg,6.83,0.5
CCN1C[C@H](C)n2c(c(O)c3c(=O)n4nc(c32)NCCCCCNC(=O)c2cc(F)ccc2C4)C1=O [Compound 40],–,–,–,–,6.2,3.1,–,–,–,5.96,0.4
CCN1C[C@H](C)n2c(c(O)c3c(=O)n4nc(c32)NCCCCCCNC(=O)c2cc(F)ccc2C4)C1=O [Compound 41],–,–,–,–,6.0,2.8,7 mL/min/kg,5.4 h,0.7 L/kg,5.95,0.4
CCN1C[C@H](C)n2c(c(O)c3c(=O)n4nc(c32)NCCCCCCN(C)C(=O)c2cc(F)ccc2C4)C1=O [Compound 42],–,–,–,–,3.3,2.6,–,–,–,5.50,0.5
CCN1C[C@H](C)n2c(c(O)c3c(=O)n4nc(c32)N(C)CCCCCCNC(=O)c2cc(F)ccc2C4)C1=O [Compound 43],–,–,–,–,2.0,0.8,–,–,–,7.00,0.5
CCN1C[C@H](C)n2c(c(O)c3c(=O)n4nc(c32)N2CCN(CC2)C(=O)CCCOc2cc(F)ccc2C4)C1=O [Compound 44],20 % TO,43 % TO,48 % TO,70 % TO,3.9,1.3,16 mL/min/kg,5.2 h,1.8 L/kg,8.22,0.7
CCN1C[C@H](C)n2c(c(O)c3c(=O)n4nc(c32)N2CCN(CC2)C(=O)CCCCOc2cc(F)ccc2C4)C1=O [Compound 45],–,–,–,–,4.3,1.6,8 mL/min/kg,4.2 h,0.9 L/kg,8.22,0.8
CCN1C[C@H](C)n2c(c(O)c3c(=O)n4nc(c32)N(C)CCCCCCOc2cc(F)ccc2C4)C1=O [Compound 46],–,–,–,–,40.8,3.6,–,–,–,5.83,0.3
CCN1C[C@H](C)n2c(c(O)c3c(=O)n4nc(c32)N2CCN(CCCCOc3cc(F)ccc3C4)S2(=O)=O)C1=O [Compound 47],–,–,–,–,4.4,3.2,–,–,–,8.40,0.7
CCN1C[C@H](C)n2c(c(O)c3c(=O)n4nc(c32)N(C)S(=O)(=O)CC/C=C\COc2cc(F)ccc2C4)C1=O [Compound 49],–,–,–,–,5.3,1.6,–,–,–,8.10,0.5
CCN1C[C@H](C)n2c(c(O)c3c(=O)n4nc(c32)N(C)S(=O)(=O)CCC/C=C\COc2cc(F)ccc2C4)C1=O [Compound 50],–,–,–,–,2.8,1.2,–,–,–,7.96,0.3
CCN1C[C@H](C)n2c(c(O)c3c(=O)n4nc(c32)N(C)S(=O)(=O)CCC/C=C/COc2cc(F)ccc2C4)C1=O [Compound 51],–,–,–,–,9.6,3.4,–,–,–,7.89,0.4
